Results as given in PubChem BioAssay (NCI).
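Protocol summary: plate cells (96-well), add compound at 5 concentrations, incubate 48 h, interpolate endpoints linearly. Definition used: TGI = concentration required for complete inhibition of growth.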

Assays:
Experiment in all cases: NCI-60 cell line screen, 48 h
[1] = system: DU-145 prostate
[2] = system: PC-3 prostate
[3] = system: SR leukemia
[4] = system: M14 melanoma
[5] = system: 786-0 renal
[6] = system: ACHN renal
[7] = system: NCI/ADR-RES ovarian
[8] = system: NCI-H226 lung
[9] = system: SF-295 CNS
[10] = system: SK-MEL-5 melanoma
[11] = system: HCT-116 colon
[12] = system: NCI-H23 lung
[13] = system: TK-10 renal
[14] = system: U251 CNS
[15] = system: LOX IMVI melanoma
[16] = system: HOP-92 NSCLC
[17] = system: OVCAR-3 ovarian
[18] = system: OVCAR-8 ovarian
[19] = system: CCRF-CEM leukemia
[20] = system: CAKI-1 renal
[21] = system: KM12 colon
[22] = system: A498 renal
[23] = system: SNB-19 CNS
[24] = system: HOP-62 NSCLC
[25] = system: MDA-N
[26] = system: IGROV1 ovarian
[27] = system: A549 NSCLC
[28] = system: EKVX NSCLC
[29] = system: SW-620 colon
[30] = system: SN12C renal
[31] = system: HL-60(TB) leukemia
[32] = system: SK-OV-3 ovarian
[33] = system: NCI-H460 lung
[34] = system: UO-31 renal
[35] = system: T-47D breast
[36] = system: SF-268 CNS
[37] = system: MALME-3M melanoma
[38] = system: RPMI-8226 leukemia
[39] = system: BT-549 breast
[40] = system: OVCAR-5 ovarian
[41] = system: MCF7 breast
[42] = system: MOLT-4 leukemia
[43] = system: MDA-MB-231 breast
[44] = system: SK-MEL-28 melanoma
[45] = system: HCC-2998 colon
[46] = system: HCT-15 colon
[47] = system: UACC-257 melanoma
[48] = system: MDA-MB-435
[49] = system: SF-539 CNS
[50] = system: COLO 205 colon
[51] = system: HT29 colon
[52] = system: RXF 393 renal
[53] = system: SNB-75 CNS
[54] = system: NCI-H522 lung
[55] = system: OVCAR-4 ovarian

CC1=C(C)C(=O)C2=C(OCCO2)C1=O gave a TGI [1] of 34 µM, a TGI [2] of 52.9 µM and a TGI [3] of 20.3 µM. For the same compound, the TGI [4] was 35.3 µM, the TGI [5] was 44.6 µM and the TGI [6] was 55.1 µM. It also gave a TGI [7] of 21.1 µM, a TGI [8] of 45 µM and a TGI [9] of 33 µM. The TGI [10] was 30.1 µM, the TGI [11] was 13.5 µM and the TGI [12] was 48 µM. It also gave a TGI [13] of 32.6 µM, a TGI [14] of 31.5 µM and a TGI [15] of 32.9 µM. It also gave a TGI [16] of 6.96 µM, a TGI [17] of 32.3 µM and a TGI [18] of 9.34 µM. It also gave a TGI [19] of 8.84 µM, a TGI [20] of 32.7 µM and a TGI [21] of 34.2 µM. It also gave a TGI [22] of 38.7 µM, a TGI [23] of 32.7 µM and a TGI [24] of 33.1 µM. The TGI [25] was 26.7 µM, the TGI [26] was 5.66 µM and the TGI [27] was 43.1 µM. For the same compound, the TGI [28] was 28.9 µM, the TGI [29] was 45.3 µM and the TGI [30] was 34.8 µM. It also gave a TGI [31] of 15 µM, a TGI [32] of 34.6 µM and a TGI [33] of 40.2 µM. It also gave a TGI [34] of 24 µM, a TGI [35] of 5.55 µM and a TGI [36] of 69.7 µM. It also gave a TGI [37] of 29.7 µM, a TGI [38] of 7.08 µM and a TGI [39] of 37.7 µM. It also gave a TGI [40] of 36.4 µM, a TGI [41] of 63.5 µM and a TGI [42] of 7.2 µM. It also gave a TGI [43] of 11.2 µM, a TGI [44] of 30.2 µM and a TGI [45] of 35 µM. The TGI [46] was 35.1 µM, the TGI [47] was 28.4 µM and the TGI [48] was 7.76 µM. It also gave a TGI [49] of 35 µM, a TGI [50] of 33.1 µM and a TGI [51] of 44.3 µM.
For Cc1cnc(Cl)nc1C(C#N)c1nc2ccccc2s1 (stereo not given), the TGI [1] was greater than 100 µM, the TGI [4] was greater than 100 µM and the TGI [5] was 38.3 µM. It also gave a TGI [6] of 42.2 µM, a TGI [7] of 89.2 µM and a TGI [8] of 84.5 µM. For the same compound, the TGI [9] was 62.2 µM, the TGI [10] was 20.1 µM and the TGI [11] was 38.2 µM. For the same compound, the TGI [12] was 40.8 µM, the TGI [13] was 78.4 µM and the TGI [14] was greater than 100 µM. The TGI [15] was 50.7 µM, the TGI [16] was 35.4 µM and the TGI [17] was greater than 100 µM. For the same compound, the TGI [18] was greater than 100 µM, the TGI [20] was 73.4 µM and the TGI [21] was greater than 100 µM. It also gave a TGI [52] of 48.1 µM, a TGI [22] of 84.2 µM and a TGI [23] greater than 100 µM. The TGI [24] was 54.6 µM, the TGI [25] was 68.1 µM and the TGI [53] was 53.5 µM. The TGI [26] was greater than 100 µM, the TGI [27] was greater than 100 µM and the TGI [28] was greater than 100 µM. The TGI [29] was greater than 100 µM, the TGI [30] was 63.2 µM and the TGI [32] was 87.2 µM. It also gave a TGI [33] greater than 100 µM, a TGI [34] greater than 100 µM and a TGI [35] greater than 100 µM. The TGI [36] was 87.8 µM, the TGI [37] was 46 µM and the TGI [38] was greater than 100 µM. It also gave a TGI [39] of 51.2 µM, a TGI [54] of 16.4 µM and a TGI [40] of 80.4 µM. It also gave a TGI [42] greater than 100 µM, a TGI [43] greater than 100 µM and a TGI [55] greater than 100 µM. It also gave a TGI [44] greater than 100 µM, a TGI [46] greater than 100 µM and a TGI [47] greater than 100 µM. The TGI [48] was greater than 100 µM, the TGI [49] was 63.8 µM and the TGI [50] was 28.5 µM. The TGI [51] was greater than 100 µM.
